Source: article PMC6086891, “Adenosine Kinase couples sensing of cellular potassium depletion to purine metabolism” (Scientific Reports, 2018)
Blank lines part the entries; values can stand above or below the compound they belong to.

Assays:
Type in all cases: binding
[1] = target: T1, Adenosine Kinase (mADK) (Mus musculus, UniProt P55264); experiment: X-ray crystal structure, […] Å binary complex (also the […] Å ternary complex 5KB5); kinetics show competitive inhibition against ATP; design: gene Adk; Δ19mADK, Leu20 – Phe360 (binary complex); full-length mADK (ternary complex)
Target sequence in this assay (P55264 20-360): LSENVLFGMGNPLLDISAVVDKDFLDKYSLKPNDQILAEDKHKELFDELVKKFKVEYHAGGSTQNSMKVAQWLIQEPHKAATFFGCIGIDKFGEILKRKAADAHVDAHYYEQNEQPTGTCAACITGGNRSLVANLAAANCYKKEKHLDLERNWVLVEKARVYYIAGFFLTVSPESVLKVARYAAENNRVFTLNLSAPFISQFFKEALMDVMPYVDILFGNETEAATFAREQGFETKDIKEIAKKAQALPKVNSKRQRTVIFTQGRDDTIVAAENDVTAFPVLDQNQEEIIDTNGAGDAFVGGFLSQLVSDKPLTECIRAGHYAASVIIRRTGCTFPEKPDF

[2] = target: T1, Adenosine Kinase (mADK); experiment: X-ray crystal structure, […] Å ternary complex mADK:ADO:ADP; design: gene Adk; full-length mADK (Met1 to His362); model residues 20 to 360
Target sequence in this assay (P55264 whole entry, the tested form may be a part): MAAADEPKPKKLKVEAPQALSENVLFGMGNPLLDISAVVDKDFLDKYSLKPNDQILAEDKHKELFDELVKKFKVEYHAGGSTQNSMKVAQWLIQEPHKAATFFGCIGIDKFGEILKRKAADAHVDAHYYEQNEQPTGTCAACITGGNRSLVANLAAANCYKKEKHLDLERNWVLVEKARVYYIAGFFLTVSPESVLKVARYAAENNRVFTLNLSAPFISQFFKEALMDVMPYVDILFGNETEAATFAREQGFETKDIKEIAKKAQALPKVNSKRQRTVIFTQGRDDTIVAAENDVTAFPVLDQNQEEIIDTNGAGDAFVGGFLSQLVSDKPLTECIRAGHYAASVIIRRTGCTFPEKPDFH

[3] = target: T2, Adenosine Kinase (mADK) (Mus musculus, UniProt P55264, D310P); experiment: 2D […]-1H HSQC titration and 1D 1H STD NMR (weaker than wild type)
T2 construct: gene Adk

[4] = target: T1, Adenosine Kinase (mADK); experiment: 2D […]-1H HSQC titration and 1D 1H STD NMR; design: gene Adk
Target sequence in this assay (P55264 whole entry, the tested form may be a part): as above

T2 sequence (P55264 whole entry D310P): as the sequence (P55264 whole entry, the tested form may be a part) above, with D310P counted along it

SMILES: Nc1ncnc2c1ncn2[C@@H]1O[C@H](CO)[C@@H](O)[C@H]1O [ADO, adenosine]
X-ray crystal structure, 1.2 Å binary complex (also the 1.8 Å ternary complex 5K) [1]: In the mADK:ADO complex, electronic density for ADO was identified in the BS1 site

X-ray crystal structure, 1.8 Å ternary complex mADK:ADO:ADP [2]: In this complex, ADP occupies BS1.
SMILES: Nc1ncnc2c1ncn2[C@@H]1O[C@H](COP(=O)(O)OP(=O)(O)O)[C@@H](O)[C@H]1O [ADP, adenosine-5′-diphosphate]

SMILES: Nc1ncnc2c1ncn2[C@@H]1O[C@H](CO[P@](=O)(O)O[P@](=O)(O)O[P@@](=O)(O)S)[C@@H](O)[C@H]1O [ATPγS, adenosine triphosphate-gamma-S]
2D 15N-1H HSQC titration and 1D 1H STD NMR (weaker than wild type) [3]: 1D ^1H STD NMR indicate that the D310P mutant has an unfavorable interaction with ATPγS relative to the wild-type mADK | 2D 15N-1H HSQC titration and 1D 1H STD NMR [4]: ATPγS caused significant chemical shift changes in the wild-type mADK, especially in the residues around the BS1 site
